Reference: patent US6906093B2, “Indolinone combinatorial libraries and related products and methods for the treatment of disease” (Sugen, Inc., priority 1995, dated 2005)
One block for each molecule: values may come before it.

Key:
FLK-1 receptor = target: T1, FLK-1 receptor (Mus musculus, UniProt P35918); assay: FLK-1 ELISA in FLK-1/NIH3T3 cells; format: cell-based; settings: ELISA, FLK-1/NIH3T3 cells, VEGF stimulated
T1 construct: expressed in transfected cells; host or cells: NIH3T3 C7 #3

HER2 Kinase = target: T2, HER2 Kinase (Homo sapiens, UniProt P04626); assay: HER-2 ELISA (whole-cell HER2 kinase activity); format: cell-based; settings: whole cells
T2 construct: fused on or other part: Candidate partner: EGFR extracellular domain (P00533) in place of HER2's own ectodomain if Assay 1 was used; none if Assay 2 (BT-474) was used

HUV-EC-C cells [1] = assay: HUV-EC-C assay, a-FGF (ECGF)-induced [3H]thymidine incorporation; format: cell-based, human; settings: a-FGF-stimulated HUV-EC cells; read-out: Mitogenesis in Endothelial Cells, [3H] Thymidine Incorporation, HUV-EC Assay, a-FGF
EpH4-VEGF = assay: FLK-1/Xenograft Model, subcutaneous tumor growth; format: in vivo, mice
Protocol: Assay 2: FLK-1/Xenograft Model.
The ability of the compounds of the present invention to inhibit ovarian, melanoma, prostate, lung and mammary tumor cell lines established as SC xenografts was examined. These studies were conducted using doses ranging from 1 to 75 mg/kg/day.
Materials And Methods. The tumor cells were implanted subcutaneously into the indicated strains of mice. Treatment was initiated on day 1 post implantation unless otherwise indicated (e.g. treatment of the SCID mouse related to the A375 melanoma cell line began on Day 9). Eight (8) to sixteen (16) mice comprised each test group.
Animals. Female athymic mice (BALB/c, nu/nu), BALB/c mice, Wistar rats and Fisher 344 rats were obtained from Simonsen Laboratories (Gilroy, Calif.). Female A/I mice were obtained from Jackson Laboratory (Bar Harbor, Me.). DA rats were obtained from B&K Universal, Inc. (Fremont, Calif.). Athymic R/Nu rats, DBA/2N mice, and BALB/c mice were obtained from Harlan Sprague Dawley (Indianapolis, Ind.). Female C57BL/6 mice were obtained from Taconic (Germantown, N.Y.). […]
Subcutaneous Xenograft Model. […] Tumor growth was measured over 3 to 6 weeks using venier calipers tumor volumes were calculated as a product of length×width×height unless otherwise indicated. P values were calculated using the Students' t-test. […]

EGF Receptor = target: T3, EGF Receptor (Homo sapiens, UniProt P00533); assay: EGF Receptor ELISA (EGFR-NIH3T3 assay); format: cell-based; settings: EGFR-NIH3T3 whole cells
T3 construct: expressed in transfected cells; host or cells: NIH 3T3/C7 (3T3/EGFRc7)

PDGFR = assay: PDGF-R ELISA (receptor phosphotyrosine in whole cells); format: cell-based; settings: U1242 cells
HUV-EC-C cells [2] = assay: HUV-EC-C assay, VEGF-induced [3H]thymidine incorporation; format: cell-based, human; settings: VEGF-stimulated HUV-EC cells; read-out: Mitogenesis in Endothelial Cells, [3H] Thymidine Incorporation, HUV-EC Assay, VEGF
[3] = test system: 3T3/PDGFR + PDGF (T) cells; assay: 3T3/PDGF-βR/PDGF-BB(T) Cell Growth SRB Assay; format: cell-based; settings: NIH 3T3 cells expressing PDGF-βR and PDGF-ββ, tumor-derived; read-out: Cell Growth Assay, SRB Readout, 3T3/PDGFR + PDGF (T) IC50

T3 sequence (P00533 25-1210): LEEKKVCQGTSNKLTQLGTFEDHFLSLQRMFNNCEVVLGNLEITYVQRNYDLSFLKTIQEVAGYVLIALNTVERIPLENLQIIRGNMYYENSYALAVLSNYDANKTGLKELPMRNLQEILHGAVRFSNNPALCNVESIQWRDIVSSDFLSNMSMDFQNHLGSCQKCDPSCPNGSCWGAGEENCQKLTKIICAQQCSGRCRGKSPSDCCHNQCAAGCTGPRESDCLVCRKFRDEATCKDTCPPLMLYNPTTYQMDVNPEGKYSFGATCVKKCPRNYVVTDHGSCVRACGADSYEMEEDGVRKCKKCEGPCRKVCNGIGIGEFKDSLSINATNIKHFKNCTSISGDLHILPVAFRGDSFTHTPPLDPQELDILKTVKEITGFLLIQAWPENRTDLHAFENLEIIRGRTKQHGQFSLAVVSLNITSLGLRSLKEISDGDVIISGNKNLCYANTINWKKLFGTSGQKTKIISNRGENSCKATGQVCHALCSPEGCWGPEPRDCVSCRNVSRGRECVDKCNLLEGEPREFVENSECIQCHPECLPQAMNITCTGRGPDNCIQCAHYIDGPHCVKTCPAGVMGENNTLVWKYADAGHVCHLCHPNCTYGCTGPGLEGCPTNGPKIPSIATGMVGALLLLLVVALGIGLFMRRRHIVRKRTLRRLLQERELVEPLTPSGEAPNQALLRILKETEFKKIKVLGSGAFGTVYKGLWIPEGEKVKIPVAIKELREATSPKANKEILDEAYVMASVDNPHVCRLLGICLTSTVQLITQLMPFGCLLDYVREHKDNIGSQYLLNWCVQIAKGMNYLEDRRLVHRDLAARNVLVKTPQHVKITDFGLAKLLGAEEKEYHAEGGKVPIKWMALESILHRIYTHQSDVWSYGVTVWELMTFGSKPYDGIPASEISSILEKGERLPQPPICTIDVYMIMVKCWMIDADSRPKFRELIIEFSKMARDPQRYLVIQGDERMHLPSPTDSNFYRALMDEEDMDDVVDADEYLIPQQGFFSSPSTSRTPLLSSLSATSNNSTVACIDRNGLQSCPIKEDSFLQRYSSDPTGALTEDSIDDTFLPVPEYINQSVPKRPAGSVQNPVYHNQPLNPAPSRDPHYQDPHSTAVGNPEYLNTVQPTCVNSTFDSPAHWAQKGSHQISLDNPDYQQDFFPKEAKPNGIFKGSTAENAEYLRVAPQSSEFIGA
T1 sequence (P35918 20-1345): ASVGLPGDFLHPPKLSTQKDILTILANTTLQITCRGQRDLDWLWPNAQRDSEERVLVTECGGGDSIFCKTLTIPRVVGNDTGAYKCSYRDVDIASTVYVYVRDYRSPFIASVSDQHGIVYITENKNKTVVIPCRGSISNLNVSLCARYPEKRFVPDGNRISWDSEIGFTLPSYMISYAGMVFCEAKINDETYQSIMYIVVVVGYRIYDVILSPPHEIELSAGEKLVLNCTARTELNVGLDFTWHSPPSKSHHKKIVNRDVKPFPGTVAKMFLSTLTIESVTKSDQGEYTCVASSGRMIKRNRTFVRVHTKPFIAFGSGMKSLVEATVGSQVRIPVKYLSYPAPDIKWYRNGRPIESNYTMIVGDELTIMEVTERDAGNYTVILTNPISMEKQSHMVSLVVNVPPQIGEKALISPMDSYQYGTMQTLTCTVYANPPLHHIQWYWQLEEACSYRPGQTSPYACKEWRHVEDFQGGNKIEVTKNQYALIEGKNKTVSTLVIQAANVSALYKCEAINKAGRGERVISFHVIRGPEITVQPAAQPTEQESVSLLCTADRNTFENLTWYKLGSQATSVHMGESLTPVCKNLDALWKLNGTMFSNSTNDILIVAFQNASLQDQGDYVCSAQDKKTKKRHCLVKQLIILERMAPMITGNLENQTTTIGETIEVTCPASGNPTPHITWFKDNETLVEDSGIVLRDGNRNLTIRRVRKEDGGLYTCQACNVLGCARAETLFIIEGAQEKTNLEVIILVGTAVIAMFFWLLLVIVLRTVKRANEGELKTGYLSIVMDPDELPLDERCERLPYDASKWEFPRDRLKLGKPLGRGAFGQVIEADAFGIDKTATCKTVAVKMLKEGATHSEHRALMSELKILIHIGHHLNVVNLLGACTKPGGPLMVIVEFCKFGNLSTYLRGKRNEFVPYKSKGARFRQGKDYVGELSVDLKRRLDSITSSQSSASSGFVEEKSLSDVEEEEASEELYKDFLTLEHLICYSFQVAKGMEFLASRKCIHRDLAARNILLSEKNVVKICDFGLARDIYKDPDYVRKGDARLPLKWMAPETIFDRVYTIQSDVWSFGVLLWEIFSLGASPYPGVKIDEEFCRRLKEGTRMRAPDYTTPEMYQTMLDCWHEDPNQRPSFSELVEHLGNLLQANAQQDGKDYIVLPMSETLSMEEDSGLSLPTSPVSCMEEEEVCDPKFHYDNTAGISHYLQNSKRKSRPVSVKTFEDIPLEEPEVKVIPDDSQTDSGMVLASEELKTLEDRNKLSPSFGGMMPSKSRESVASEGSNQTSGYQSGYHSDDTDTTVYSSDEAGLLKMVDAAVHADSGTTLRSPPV
T2 sequence (P04626 720-987 limits assumed): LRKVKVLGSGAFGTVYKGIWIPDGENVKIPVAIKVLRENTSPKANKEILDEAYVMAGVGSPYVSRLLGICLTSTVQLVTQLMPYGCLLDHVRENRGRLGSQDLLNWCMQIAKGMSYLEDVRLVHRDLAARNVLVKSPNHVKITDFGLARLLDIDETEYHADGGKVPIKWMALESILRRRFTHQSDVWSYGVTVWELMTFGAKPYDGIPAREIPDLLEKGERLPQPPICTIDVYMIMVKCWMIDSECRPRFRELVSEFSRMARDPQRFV

SMILES: O=C1Nc2ccccc2C1=Cc1ccc(N2CCCCC2)cc1 [SU5450, 3-[4-(Piperidin-1-yl)benzylidenyl]-2-indolinone]
IC50 (FLK-1 receptor): 4.5 µM
IC50 (HER2 Kinase): 92.6 µM

SMILES: O=C1Nc2ccccc2C1=Cc1ccc(Br)cc1 [SU4942, 3-(4-Bromobenzylidenyl)-2-indolinone]
IC50 (HUV-EC-C cells [1]): 4.6 µM
EpH4-VEGF % inhibition @ mg/kg (EpH4-VEGF; @ 25 mg/kg): 47% @ 25
EpH4-VEGF % inhibition @ mg/kg (EpH4-VEGF; @ 50 mg/kg): 46% @ 50

SMILES: CCc1ccc(C=C2C(=O)Nc3ccccc32)s1 [SU5451, 3-[(2-Ethylthien-5-yl)methylene]-2-indolinone]
IC50 (FLK-1 receptor): 3.4 µM
IC50 (EGF Receptor): 44 µM

IC50 (HER2 Kinase): 22.5 µM
SMILES: CN1C(=O)C(=Cc2ccc(Br)cc2)c2ccccc21 [SU4956, 3-(4-Bromobenzylidenyl)-1-methyl-2-indolinone]

SMILES: O=CN1CCN(c2ccc(C=C3C(=O)Nc4ccccc43)cc2)CC1 [SU4984, 3-[4-(4-Formylpiperazin-1-yl)benzylidenyl]-2-indolinone]
IC50 (PDGFR): 5.8 µM
IC50 (FLK-1 receptor): 1.6 µM
IC50 (HER2 Kinase): 90.2 µM
IC50 (HUV-EC-C cells [2]): 0.8 µM
IC50 (HUV-EC-C cells [1]): 25.8 µM
IC50 [3]: 22.2 µM

SMILES: COc1ccc(C=C2C(=O)Nc3ccccc32)c(Cl)c1 [SU5480, 3-[2-Chloro-4-methoxybenzylidenyl]-2-indolinone]
IC50 (FLK-1 receptor): 5.3 µM
IC50 (EGF Receptor): 39.6 µM

SMILES: COc1ccccc1C=C1C(=O)Nc2ccccc21 [SU5214, 3-(2-Methoxybenzylidenyl)-2-indolinone]
IC50 (FLK-1 receptor): 14.8 µM
IC50 (EGF Receptor): 36.7 µM

SMILES: CN1C(=O)C(=Cc2ccc(N3CCOCC3)cc2)c2ccccc21 [SU4982, 1-Methyl-3-[4-(morpholin-4-yl)benzylidenyl]-2-indolinone]
IC50 (FLK-1 receptor): 21.6 µM
IC50 (HER2 Kinase): 39.4 µM
